According to patent publication US7498406B2, “Substantially cell membrane impermeable compound and use thereof” (priority 1999, dated 2009):

Experiments:
[1] = assay type: in vivo, SCID mice; settings: for macroscopic differences to untreated mice / morphological changes in heart, lungs, liver, kidneys, spleen: 10 mg per kg per day; for macroscopic differences to untreated mice: end of experiment; for morphological changes in heart, lungs, liver, kidneys, spleen: light microscopy (not shown); for adverse side effects of administration: 2 or 10 mg per kg per day, subcutaneous
Method: FIG. 24. […] The data points and errors represent the mean and SE of the animal weights for the experiment described in FIG. 23.
Female 7 to 9 week old SCID or C57Bl6/J mice were used (Massachusetts General Hospital, Boston, Mass.). Mice were held in groups of 3 to 5 at a 12 hour day and night cycle and were fed with animal chow and water ad libidum. SCID mice were anaesthetised by inhalation of isoflurane, the dorsal skin shaved and cleaned with ethanol, and a suspension of 2.5×10^6 BxPC-3 or HT1080 cells in 0.2 mL of DMEM was injected subcutaneously in the proximal midline. C57Bl6/J mice with Lewis lung carcinomas of 0.6-1.2 cm^3 volumes were sacrificed and the skin overlying the tumour was cleaned with betadine and ethanol. Tumour tissue was excised under aseptic conditions and a suspension of tumour cells in 0.9% saline was made by passage of tumour tissue through a sieve and a series of sequentially smaller 22- to 30-gauge hypodermic needles. C57Bl6/J mice were anaesthetised and prepared as for SCID mice and a suspension of Lewis lung carcinoma cells in 0.2 mL of saline was injected subcutaneously in the proximal midline. Tumours were allowed to establish and grow to a size of ˜0.1 cm^3 after which they were randomised into two groups. The tumours were measured in two diameters and tumour volume was calculated using the relationship, tumour volume=a×b^2×0.52, where a is the longest and b the shortest diameters in cm. Animals were treated with either GSAA or GSAO at doses of 2 or 10 mg per kg per day in 0.2 mL of PBS containing 100 mM glycine. The compounds were administered subcutaneously at a site distant from the tumour. Tumour volume and animal weight was measured every 3 days. The tumours were excised and weighed when the animals were sacrificed.
At the conclusion of the experiment described in FIG. 23B the mice from both treatment groups were examined. […] The heart, lungs, liver, kidneys, and spleen of the GSAA or GSAO-treated and untreated mice were fixed in formaldehyde, embedded in paraffin, sectioned, stained with haematoxylin and eosin and examined by light microscopy.

BVSM = assay: Proliferation of cultured cells, 72 hr; assay type: cell-based, bovine; settings: 5% BCS, 0 to 1 mM
Method: FIG. 19. Effect of GSAO on proliferation of non-endothelial cells. 15,000 BxPC-3 (part A), HT1080 (part B), 3T3 (part C) or BVSM (part D) cells per well were seeded into gelatinised 24-well culture plates and allowed to attach for 24 hr. The media was then replaced with DMEM containing 0 to 1 mM GSAO or GSAA and either 5% BCS (part D) or 5% FCS (parts A, B and C). Cells were cultured for 72 hr and then dispersed and counted. The dotted lines indicate the cell number in control wells containing DMEM and 2% BCS (part D) or 2% FCS (parts A, B and C) which represented no to limited proliferation. The data points and errors represent the mean and range of duplicate wells.
BCE (Folkman et al. 1979), BAE, BxPC-3 (ATCC, Bethesda, Md.), HT1080 (Jiang et al., 1999), 3T3 (ATCC, Bethesda, Md.) and BVSM (Hogg et al., 1997) cells were harvested and cultured as indicated. […] Cells were cultured for 0 to 72 hr in 10% CO2 at 37° C. then dispersed in trypsin/EDTA (GibcoBRL, Granc Island, N.Y.), resuspended in Coulter balanced electrolyte solution and counted with a Z1 Coulter counter (Coulter Corp., Miami, Fla.) in all experiments there were two control wells containing DMEM with 1% GPS and either 5% BCS for BCE cells, 2% BCS for BAE and BVSM cells, or 2% FCS for BxPC-3, HT1080 and 3T3 cells. […]

BxPC-3 tumours = assay: Tumour growth, continuous intraperitoneal administration by micro-osmotic pumps; assay type: in vivo, SCID mice; settings: 10 mg per kg per day
Method: FIG. 27. Inhibition of human pancreatic carcinoma tumour growth by continuous intraperitoneal administration of GSAO. BxPC-3 tumours were established in the proximal midline of female 7 to 9 week old SCID mice. Mice bearing ˜0.1 g tumours were implanted with 14 day alzet model 1002 micro-osmotic pumps (ALZA Corporation, Palo Alto, Calif.) in the peritoneal cavity. The pumps contained 45 mg per mL GSAA or GSAO and delivered 10 mg per kg per day. The pumps were replaced after 14 days. Pump duration is indicated by the shaded bar. Tumour volume and animal weight was measured every 3 days.
SCID mice bearing subcutaneous human BxPC-3-pancreatic carcinoma tumours were implanted with 14 day micro-osmotic pumps in the peritoneal cavity. The pumps delivered 10 mg per kg per day GSAA or GSAO and were replaced after 14 days with fresh pumps. The rate of growth of the BxPC-3 tumours was inhibited in the mice receiving GSAO (FIG. 27). […] When the second pump was exhausted one of the halted tumours began to grow at about the same rate as the GSAA-treated tumour while the other tumour had resolved completely.

SMILES | macroscopic differences to untreated mice [1] | morphological changes in heart, lungs, liver, kidneys, spleen [1] | adverse side effects of administration [1] | Proliferation IC50 (BVSM) | rate of BxPC-3 tumour growth (BxPC-3 tumours) | slowing of tumour growth in one mouse (BxPC-3 tumours) [%]
N[C@@H](CCC(=O)N[C@@H](CSCC(=O)Nc1ccc([As](=O)(O)O)cc1)C(=O)NCC(=O)O)C(=O)O [GSAA, 4-(N-(S-glutathionylacetyl)amino)phenylarsonic acid, reference compound] | no apparent macroscopic differences | no obvious morphological changes | no apparent adverse side effects | no significant effect | no significant effect | –
NC(CCC(=O)NC(CSCC(=O)Nc1ccc([As]=O)cc1)C(=O)NCC(=O)O)C(=O)O (centres unmarked) [GSAO, 4-(N-(S-glutathionylacetyl)amino)-phenylarsenoxide] | no apparent macroscopic differences | no obvious morphological changes | no apparent adverse side effects | did not affect the proliferation | halted completely in two other mice | 50
